Laboratory results from patent US6905834B1, “Bioluminescent bioreporter integrated circuit detection methods” (UT-Battelle, LLC, priority 1997, dated 2005).
Read-outs that look alike come from different tables or passages of the source.

Columns and labels:
Format in all cases: cell-based, Pseudomonas putida
[1] = test system: P. putida TVA8
[2] = test system: P. putida B2; assay: Assays of growing cells of tod-lux reporter P. putida B2; settings: for bioluminescent response: 90 minutes exposure
Protocol: (§1) In the batch and reactor studies, bioluminescence was measured using a photomultiplier, which converts the light to an electric current. The photomultiplier in the resting cell assays and the reactor system was connected to a computer and bioluminescence as namps current was recorded.
Assays of growing cells were conducted as described by Heitzer et al. (1992). An overnight culture from a frozen stock of P. putida B2 was prepared in a 250-ml Erlenmeyer flask containing 100 ml LB and 50 μg ml^−1 kanamycin. A subculture was prepared and cells were used in mid-log phase (OD546 of 0.45-0.48). A 2.5-ml aliquot was added to 2.5 ml mineral salts medium (MSM) containing 0-50 mg L^−1 toluene or 10-100 μl of JP4 jet fuel-saturated MSM. The concentration of toluene in water saturated with JP4 jet fuel is approximately 8 mg L^−1 (Smith et al., 1981). Bioluminescence was measured every 30 min.

[3] = test system: P. putida B2; assay: Resting cell assays of P. putida B2, single and multiple toluene exposures; settings: 10 mg/L toluene; for Bioluminescent response rate, Multiple Exposure Vial: single vial with multiple additions; for Bioluminescent response rate, Single Exposure Vials: new vial previously unexposed
Protocol: as §1
Cells for resting cell assays were grown on MSM supplemented with 2.7 g L^−1 succinate. A culture of P. putida B2 was harvested at on OD546 of approximately 0.8. The cells were centrifuged at 15000×g for 10 min, and resuspended in MSM to OD546 of 0.6 four milliliters of culture were added to each of six 26-ml vials with Mininert valves (Dynatech, Chantilly, Va.) with stir bars. One vial was used for multiple toluene exposures, while the remainder were used for single exposures. The vials were magnetically stirred in a light-tight sampling cell. Toluene-saturated MSM and MSM alone were added to yield an OD546 of 0.47, and 10 mg L^−1 toluene was injected six times over a 130-h period of the multiple-exposure vial. At the same time points, a single-exposure vial was injected with 10 mg L^−1 toluene. The light response was recorded every 3 min with a photomultiplier connected to a data acquisition computer.

[4] = test system: P. putida B2; assay: Immobilized cell reactor (DVR) with alginate-encapsulated P. putida B2: bioluminescence and TCE co-metabolism
Protocol: as §1
P. putida B2 was encapsulated in alginate beads for the immobilized cell reactor system. Cells were grown in 1 L LB to an OD546 of 1.2 and were centrifuged at 5500×g for 10 min, washed three times in 0.9% NaCl and suspended in 40 ml 0.9% NaCl. The cell suspension was added to 80 ml of an alginic acid solution (28 g L^−1 low viscosity alginate, 0.9% NaCl) (Webb, 1992). The cell-alginate suspension was placed in a 60-ml syringe, forced through a 25-gauge needle, and allowed to drop into a 0.5 M CaCl2 Solution. The alginate was cross-linked by the Ca^2+ ions, thus encapsulating the cells. The cells were subsequently placed in a fresh solution of 0.1 M CaCl2 and allowed to sit for 30 min prior to use.
A differential volume reactor (DVR) was used to simulate a section of an ideal plug flow reactor. Influent to the reactor was dispersed through a porous metal frit to provide a flat velocity profile to the bed. The reactor measured 5.0 cm i.d.×5.0 cm long. A complete description of this reactor can be found in Webb et al. (1991). In this investigation, a system was designed incorporating the DVR as illustrated in FIG. 17. The system was equipped with three Millipore (Bedford, Mass.) stainless steel substrate containers rated to 690 kPa. The feed from the substrate vessels to the reactor inlet was controlled by two Filson (Middleton, Wis.) 301 HPLC pumps. A flow rate of 0.4 ml min^−1 was maintained. The substrate vessels were pressurized with oxygen to provide the system with an electron acceptor. All medium vessels contained trace mineral medium (Lackey et al., 1993) with the addition of 3 mg L^−1 pyruvic acid and a 0.1 M solution of Tris-base (pH 7.0). phosphate buffers were not used since phosphate ions complex with Ca^2+ ions and disrupt with alginate crosslinking. In addition to this medium, two of the vessels contained either TCE or toluene. The inlet concentration of toluene was altered by using square-wave perturbations with 20-h cycles (10 h with toluene, 10 h without toluene) using an HPLC pump controlled by a timer. During feed portions of the cycle, 10 mg L^−1 toluene was introduced into the inlet of the reactor. The inlet TCE concentration was constant at 20 mg L^−1.
Analysis of TCE in the reactor effluent was performed online using a stripping column (12.5 cm length and 0.4 cm inner diameter) packed with 3-mm glass beads to provide adequate surface area for TCE separation. TCE was stripped with helium, the GC carrier gas. The stripping column outlet was attached to a gas chromatograph (GC, Hewlett Packard (Wilmington, Del.) (HP) 5890 Series II) with an electron capture detector by a heated sample line maintained at 75° C. Automatic injections (25 μl) were made by a computerized control process (HP Chem Station software). The GC was equipped with a cross-linked methyl silicone capillary column (length 30 n, i.d 0.2 mm, 0.33-μm film thickness) while the oven was operated isothermally at 60° C. Other operating parameters included an injection temperature of 150° C., detector temperature of 200° C. and a split ratio of 10:1. This system was equipped with a bypass line around the reactor in order to calibrate the stripping column.
Toluene samples were removed at 0.5-ml aliquots from the effluent sampling port (FIG. 17) and injected into 1.5 ml sample vials. Headspace analysis was performed using a Shimadzu (Columbia, Md.) GC-9A gas chromatograph equipped with a 2.44-m, 3.2-mm diameter Poropak N packed column and a flame ionization detector. The isothermal temperature of the oven was 210° C., and both the detector and injector temperatures were 220° C.

Cc1ccccc1 [Toluene, toluene]
light response (in words) ([1]; approximately 50 mg/L (JP-4 approx. 2%), 2 h): significant light response
bioluminescence relative to background bioluminescence level ([1]; at 50 μg toluene/L): 80 fold
Specific Bioluminescence ([1]; exposure 2 hours, approximately 50 mg/L, normalized to final OD546, average ± SD of three replicates): 291 ± 6 namp/OD
Specific Bioluminescence ([1]; toluene 50 mg/L, 2 h exposure): 290 namp/OD546
bioluminescent response (in words) ([2]; 0 and 0.01 mg/l toluene): not a significant bioluminescent response
bioluminescent response ([2]; 0.1 mg/l toluene): 2.4 namp
bioluminescent response ([2]; 10, 20 and 50 mg/l toluene): approximately 90 namp
maximum bioluminescent response ([3]; same for single and multiple exposures): 573±127 namp
Bioluminescent response rate, Multiple Exposure Vial ([3]; time point 1): 95 NAMP/HR
Bioluminescent response rate, Single Exposure Vials ([3]; time point 2): 137 NAMP/HR
Bioluminescent response rate, Multiple Exposure Vial ([3]; time point 2): 321 NAMP/HR
Bioluminescent response rate, Single Exposure Vials ([3]; time point 3): 67 NAMP/HR
Bioluminescent response rate, Multiple Exposure Vial ([3]; time point 3): 642 NAMP/HR
Bioluminescent response rate, Single Exposure Vials ([3]; time point 4): 60 NAMP/HR
Bioluminescent response rate, Multiple Exposure Vial ([3]; time point 4): 768 NAMP/HR
Bioluminescent response rate, Single Exposure Vials ([3]; time point 5): 60 NAMP/HR
Bioluminescent response rate, Multiple Exposure Vial ([3]; time point 5): 737 NAMP/HR
Bioluminescent response rate, Single Exposure Vials ([3]; time point 6): 49 NAMP/HR
Bioluminescent response rate, Multiple Exposure Vial ([3]; time point 6): 973 NAMP/HR
maximum light response ([4]; 10 mg/L toluene square-wave feed, 20 mg/L TCE): 43.4±6.8 namp
rate of light response decrease ([4]; after the toluene feed was stopped): 3.4±0.8 namp/hr
rate of light emission increase ([4]; during toluene feed cycle, 10 mg/L toluene, 20 mg/L TCE): 16.3±1.2 namp/hr
effluent toluene concentration ([4]; inlet toluene 10 mg/L): 5.8 ± 0.1 mg/L
toluene removal ([4]; inlet toluene 10 mg/L): 50%
ratio toluene degraded to TCE degraded ([4]; steady state in DVR): 1.7 μmol toluene degraded/μmol TCE degraded
